# Assay results as given in patent publication US12161669B2, “Compositions and methods for cell targeting therapies” (UMC UTRECHT HOLDING B.V., priority 2017, dated 2024).
# Columns and labels:
# Type in all cases: cell-based
# [1] = tested on: RhoB; assay: Intracellular RhoB distribution in human dendritic cells; details: human dendritic cells treated with ABP
# Description: For intracellular immunofluorescence staining of RhoB, cells were treated with pamidronate overnight (where indicated) and were allowed to attach onto coverslips precoated with poly-Llysine (Sigma-Aldrich). Cells were subsequently permeabilized with Permeabilizing solution 2 (BD), blocked with blocking serum (50% pooled normal human serum in PBS), and stained with a rabbit polyclonal anti-RhoB antibody (AbCam) followed by a secondary Goat anti-Rabbit IgG Alexa Fluor 488-conjugated antibody (Jackson ImmunoResearch). Cells were washed with blocking serum, fixed with 4% paraformaldehyde, stained with DAPI (where indicated), and mounted onto microscopy slides using Mowiol. Images were acquired using a Zeiss confocal laser scanning microscope LSM 700. Ratios between nuclear and extranuclear signal of RhoB was determined using Volocity software (PerkinElmer) or Image J software, where DAPI staining was used, when available, to mark nuclei.
# [2] = tested on: RhoB and CD277; assay: Proximity ligation assay of RhoB and CD277 in EBV-LCL 48 cells; details: ABP pretreated vs medium
# [3] = tested on: CD277; assay: Flow cytometry FRET between BODIPY FL-stained membrane and anti-CD277 mAbs (CD277 conformational change), HEK 293 cells; details: ABP vs unstimulated
# Description: Conformational change of BTN3 molecule was determined similarly as described in ([…] et al., 2001). Cells were labeled with 5 ug/ml BODIPY-FL DPHE (donor) (Life Technologies) for 10 minutes on ice and then 10 minutes at 37 C, then washed extensively with ice-cold PBS. Cells were subsequently labeled with mouse anti-CD277 mAbs (either clone #20.1 or #103.2) and Alexa594-conjugated Goat anti-Mouse Fab fragments (Jackson ImmunoResearch). After washing, cells were resuspended in ice cold PBS and measured immediately using a FACS Canto-II flowcytometer (BD). FRET efficiency was calculated from the fractional decrease of the donor fluorescence in the presence of the acceptor.
compound,measurement,setting,value
NCCC(O)(P(=O)(O)O)P(=O)(O)O [pamidronate],RhoB exclusion from the nucleus,[1],excluded from the nucleus in human
same,proximity of RhoB and CD277 (PLA signal),[2],in close proximity
same,"FRET between stained membrane and anti-CD277 antibodies (20.1, 103.2)",[3],marked reduction in FRET signals
